Measured values reported in patent publication US8232273B2, “Heterocyclic compounds and methods of use” (Genentech, Inc., priority 2008, dated 2012).

Experiments:
Bcl-xL (GST-Bcl-xL) [1] = target: T1, Bcl-xL (GST-Bcl-xL) (Homo sapiens, UniProt Q07817); experiment: TR-FRET binding assay, competition with F-Bak for the Bcl-xL binding site; details: values listed in the order of Table 1, read-out: TR-FRET assay results (Ki), Bcl-xL
Bcl-xL (GST-Bcl-xL) [2] = target: T1, Bcl-xL (GST-Bcl-xL); experiment: AlphaScreen Bcl-xL binding assay, competition with biotinylated Bim peptide; set-up: made in house; details: values listed in the order of Table 1; read-out: Alphascreen results (IC50) against the Bcl-xL protein
Procedure, shortened: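 Acceptor beads with GST-Bcl-xL were combined with donor beads carrying biotinylated Bim peptide after each bead mix was preincubated 30 min at room temperature. Compounds in DMSO, 2-fold serially diluted, were incubated 30 min at room temperature before donor addition, with duplicate plates. Percent inhibition was taken against no-protein and DMSO controls, and IC50 was calculated.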

T1 sequence (Q07817 whole entry, species assumed): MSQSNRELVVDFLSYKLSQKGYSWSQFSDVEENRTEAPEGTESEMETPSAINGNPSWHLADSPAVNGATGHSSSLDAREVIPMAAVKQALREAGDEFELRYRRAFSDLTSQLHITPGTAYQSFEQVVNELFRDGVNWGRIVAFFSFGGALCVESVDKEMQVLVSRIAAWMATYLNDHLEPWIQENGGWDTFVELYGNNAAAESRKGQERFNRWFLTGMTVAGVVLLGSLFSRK

CC(C)(C)OC(=O)Nc1cccc(OCCCc2sc(N3CCc4cccc(C(=O)Nc5nc6ccccc6s5)c4C3)nc2C(=O)O)c1 [Example 5, 2-(8-(benzo[d]thiazol-2-ylcarbamoyl)-3,4-dihydroisoquinolin-2(1H)-yl)-5-(3-(3-(tert-butoxycarbonylamino)phenoxy)propyl)thiazole-4-carboxylic acid]
Ki (Bcl-xL (GST-Bcl-xL) [1]): 1 nM
IC50 (Bcl-xL (GST-Bcl-xL) [2]): 2 nM

CN(C)c1cccc(OCCCc2sc(N3CCc4cccc(C(=O)Nc5nc6ccccc6s5)c4C3)nc2C(=O)O)c1 [Example 11, 2-(8-(benzo[d]thiazol-2-ylcarbamoyl)-3,4-dihydroisoquinolin-2(1H)-yl)-5-(3-(3-(dimethylamino)phenoxy)propyl)thiazole-4-carboxylic acid]
Ki (Bcl-xL (GST-Bcl-xL) [1]): 0.1 nM
IC50 (Bcl-xL (GST-Bcl-xL) [2]): 2 nM

CN1CCN(c2cc(F)c(OCCCc3sc(N4CCc5cccc(C(=O)Nc6nc7ccccc7s6)c5C4)nc3C(=O)O)cc2F)CC1 [Example 108, 2-(8-(benzo[d]thiazol-2-ylcarbamoyl)-3,4-dihydroisoquinolin-2(1H)-yl)-5-(3-(2,5-difluoro-4-(4-methylpiperazin-1-yl)phenoxy)propyl)thiazole-4-carboxylic acid]
Ki (Bcl-xL (GST-Bcl-xL) [1]): 0.02 nM
IC50 (Bcl-xL (GST-Bcl-xL) [2]): 0.4 nM

O=C(Nc1nc2ccccc2s1)c1cccc2c1CN(c1nc(C(=O)O)c(CCCN3CCCCC3)s1)CC2 [Example 20, 2-(8-(benzo[d]thiazol-2-ylcarbamoyl)-3,4-dihydroisoquinolin-2(1H)-yl)-5-(3-(piperidin-1-yl)propyl)thiazole-4-carboxylic acid]
Ki (Bcl-xL (GST-Bcl-xL) [1]): 3 nM
IC50 (Bcl-xL (GST-Bcl-xL) [2]): 8 nM

N#Cc1cscc1-c1ccc(OCCCc2sc(N3CCc4cccc(C(=O)Nc5nc6ccccc6s5)c4C3)nc2C(=O)O)cc1 [Example 51, 2-[8-(Benzothiazol-2-ylcarbamoyl)-3,4-dihydro-1H-isoquinolin-2-yl]-5-{3-[4-(4-cyano-thiophen-3-yl)-phenoxy]-propyl}-thiazole-4-carboxylic acid]
Ki (Bcl-xL (GST-Bcl-xL) [1]): 0.3 nM
IC50 (Bcl-xL (GST-Bcl-xL) [2]): 6 nM

O=C(Nc1nc2ccccc2s1)c1cccc2c1CN(c1nc(C(=O)O)c(CCCOc3ccc4nc(N5CCN(c6ccccn6)CC5)sc4c3)s1)CC2 [Example 23, 2-(8-(benzo[d]thiazol-2-ylcarbamoyl)-3,4-dihydroisoquinolin-2(1H)-yl)-5-(3-(2-(4-(pyridin-2-yl)piperazin-1-yl)benzo[d]thiazol-6-yloxy)propyl)thiazole-4-carboxylic acid]
Ki (Bcl-xL (GST-Bcl-xL) [1]): 2 nM
IC50 (Bcl-xL (GST-Bcl-xL) [2]): 1 nM

Nc1nc2ccccc2n1-c1ccc(OCCCc2sc(N3CCc4cccc(C(=O)Nc5nc6ccccc6s5)c4C3)nc2C(=O)O)cc1 [Example 77, 5-(3-(4-(2-amino-1H-benzo[d]imidazol-1-yl)phenoxy)propyl)-2-(8-(benzo[d]thiazol-2-ylcarbamoyl)-3,4-dihydroisoquinolin-2(1H)-yl)thiazole-4-carboxylic acid]
Ki (Bcl-xL (GST-Bcl-xL) [1]): 7 nM
IC50 (Bcl-xL (GST-Bcl-xL) [2]): 34 nM

N#Cc1c(-c2ccc(OCc3ccc(-c4sc(N5CCc6cccc(C(=O)Nc7nc8ccccc8s7)c6C5)nc4C(=O)O)cc3)cc2)n[nH]c1N [Example 35, 5-(4-((4-(5-amino-4-cyano-1H-pyrazol-3-yl)phenoxy)methyl)phenyl)-2-(8-(benzo[d]thiazol-2-ylcarbamoyl)-3,4-dihydroisoquinolin-2(1H)-yl)thiazole-4-carboxylic acid]
Ki (Bcl-xL (GST-Bcl-xL) [1]): 4 nM
IC50 (Bcl-xL (GST-Bcl-xL) [2]): 10 nM

O=C(Nc1nc2ccccc2s1)c1cccc2c1CN(c1nc(C(=O)O)c(CN3CCN(c4ccccc4)CC3)s1)CC2 [Example 62, 2-(8-(benzo[d]thiazol-2-ylcarbamoyl)-3,4-dihydroisoquinolin-2(1H)-yl)-5-((4-phenylpiperazin-1-yl)methyl)thiazole-4-carboxylic acid]
Ki (Bcl-xL (GST-Bcl-xL) [1]): 130 nM
IC50 (Bcl-xL (GST-Bcl-xL) [2]): 1600 nM

CC(C)(C)OC(=O)Nc1ccc(OCCCc2sc(N3CCc4cccc(C(=O)Nc5nc6ccccc6s5)c4C3)nc2C(=O)O)cc1 [Example 4, 2-(8-(benzo[d]thiazol-2-ylcarbamoyl)-3,4-dihydroisoquinolin-2(1H)-yl)-5-(3-(4-(tert-butoxycarbonylamino)phenoxy)propyl)thiazole-4-carboxylic acid]
Ki (Bcl-xL (GST-Bcl-xL) [1]): 0.3 nM
IC50 (Bcl-xL (GST-Bcl-xL) [2]): 0.8 nM

CN1CCN(C(=O)c2ccc(OCCCc3ccc(N4CCc5cccc(C(=O)Nc6nc7ccccc7s6)c5C4)nc3C(=O)O)cc2)CC1 [Example 98, 6-(8-(benzo[d]thiazol-2-ylcarbamoyl)-3,4-dihydroisoquinolin-2(1H)-yl)-3-(3-(4-(4-methylpiperazine-1-carbonyl)phenoxy)propyl)picolinic acid]
Ki (Bcl-xL (GST-Bcl-xL) [1]): 10 nM
IC50 (Bcl-xL (GST-Bcl-xL) [2]): 140 nM

O=C(Nc1nc2ccccc2s1)c1cccc2c1CN(c1nc(C(=O)O)c(CCCOc3ccc(-c4cccnc4)cc3)s1)CC2 [Example 41, 2-(8-(Benzo[d]thiazol-2-ylcarbamoyl)-3,4-dihydroisoquinolin-2(1H)-yl)-5-(3-(4-(pyridin-3-yl)phenoxy)propyl)thiazole-4-carboxylic acid]
Ki (Bcl-xL (GST-Bcl-xL) [1]): 0.1 nM
IC50 (Bcl-xL (GST-Bcl-xL) [2]): 0.7 nM

O=C(Nc1nc2ccccc2s1)c1cccc2c1CN(c1nc(C(=O)O)c(CCCOc3ccc(C4(c5ccccc5)CCCC4)cc3)s1)CC2 [Example 24, 2-(8-(benzo[d]thiazol-2-ylcarbamoyl)-3,4-dihydroisoquinolin-2(1H)-yl)-5-(3-(4-(1-phenylcyclopentyl)phenoxy)propyl)thiazole-4-carboxylic acid]
Ki (Bcl-xL (GST-Bcl-xL) [1]): 7 nM
IC50 (Bcl-xL (GST-Bcl-xL) [2]): 27 nM

O=C(O)c1cccc(N2CCc3cccc(C(=O)Nc4nc5ccccc5s4)c3C2)n1 [Compound 120, 6-(8-(benzo[d]thiazol-2-ylcarbamoyl)-3,4-dihydroisoquinolin-2(1H)-yl)picolinic acid]
Ki (Bcl-xL (GST-Bcl-xL) [1]): 150 nM
IC50 (Bcl-xL (GST-Bcl-xL) [2]): 310 nM

CN(C)CC#Cc1ccc(OCCCc2sc(N3CCc4cccc(C(=O)Nc5nc6ccccc6s5)c4C3)nc2C(=O)O)cc1F [Example 117, 2-(8-(benzo[d]thiazol-2-ylcarbamoyl)-3,4-dihydroisoquinolin-2(1H)-yl)-5-(3-(4-(3-(dimethylamino)prop-1-ynyl)-3-fluorophenoxy)propyl)thiazole-4-carboxylic acid]
Ki (Bcl-xL (GST-Bcl-xL) [1]): 3 nM
IC50 (Bcl-xL (GST-Bcl-xL) [2]): 17 nM

O=C(Nc1nc2ccccc2s1)c1cccc2c1CN(c1nc(C(=O)O)c(CCCSc3ccncc3)s1)CC2 [Example 3, 2-(8-(benzo[d]thiazol-2-ylcarbamoyl)-3,4-dihydroisoquinolin-2(1H)-yl)-5-(3-(pyridin-4-ylthio)propyl)thiazole-4-carboxylic acid]
Ki (Bcl-xL (GST-Bcl-xL) [1]): 0.2 nM
IC50 (Bcl-xL (GST-Bcl-xL) [2]): 1 nM

O=C(Nc1nc2ccccc2s1)c1cccc2c1CN(c1nc(C(=O)O)c(-c3ccc(CO)cc3)s1)CC2 [Example 34, 2-(8-(benzo[d]thiazol-2-ylcarbamoyl)-3,4-dihydroisoquinolin-2(1H)-yl)-5-(4-(hydroxymethyl)phenyl)thiazole-4-carboxylic acid]
Ki (Bcl-xL (GST-Bcl-xL) [1]): 4 nM
IC50 (Bcl-xL (GST-Bcl-xL) [2]): 5 nM

N#C/C=C/c1cccc(OCCCc2sc(N3CCc4cccc(C(=O)Nc5nc6ccccc6s5)c4C3)nc2C(=O)O)c1 [Example 30, (E)-2-(8-(benzo[d]thiazol-2-ylcarbamoyl)-3,4-dihydroisoquinolin-2(1H)-yl)-5-(3-(3-(2-cyanovinyl)phenoxy)propyl)thiazole-4-carboxylic acid]
Ki (Bcl-xL (GST-Bcl-xL) [1]): 0.4 nM
IC50 (Bcl-xL (GST-Bcl-xL) [2]): 0.3 nM

CN(C)CCOc1ccc(OCCCc2ccc(N3CCc4cccc(C(=O)Nc5nc6ccccc6s5)c4C3)nc2C(=O)O)cc1 [Compound 132, 6-(8-(benzo[d]thiazol-2-ylcarbamoyl)-3,4-dihydroisoquinolin-2(1H)-yl)-3-(3-(4-(2-(dimethylamino)ethoxy)phenoxy)propyl)picolinic acid]
Ki (Bcl-xL (GST-Bcl-xL) [1]): 0.18 nM
IC50 (Bcl-xL (GST-Bcl-xL) [2]): 0.9 nM

Cc1ccccc1-c1ccc(N2CCc3cccc(C(=O)Nc4nc5ccccc5s4)c3C2)nc1C(=O)O [Compound 126, 6-(8-(benzo[d]thiazol-2-ylcarbamoyl)-3,4-dihydroisoquinolin-2(1H)-yl)-3-o-tolylpicolinic acid]
Ki (Bcl-xL (GST-Bcl-xL) [1]): 197 nM
IC50 (Bcl-xL (GST-Bcl-xL) [2]): 77.6 nM

O=C(Nc1nc2ccccc2s1)c1cccc2c1CN(c1ccc(CCc3ccccc3)c(C(=O)O)n1)CC2 [Compound 127, 6-(8-(benzo[d]thiazol-2-ylcarbamoyl)-3,4-dihydroisoquinolin-2(1H)-yl)-3-phenethylpicolinic acid]
Ki (Bcl-xL (GST-Bcl-xL) [1]): 660 nM
IC50 (Bcl-xL (GST-Bcl-xL) [2]): 598 nM

CN(C)CC#Cc1ccc(OCCCc2sc(N3CCc4cccc(C(=O)Nc5nc6ccccc6s5)c4C3)nc2C(=O)O)c(Cl)c1 [Compound 119, 2-(8-(benzo[d]thiazol-2-ylcarbamoyl)-3,4-dihydroisoquinolin-2(1H)-yl)-5-(3-(2-chloro-4-(3-(dimethylamino)prop-1-ynyl)phenoxy)propyl)thiazole-4-carboxylic acid]
Ki (Bcl-xL (GST-Bcl-xL) [1]): 0.04 nM
IC50 (Bcl-xL (GST-Bcl-xL) [2]): 0.2 nM

N#CC1(c2ccc(OCCCc3sc(N4CCc5cccc(C(=O)Nc6nc7ccccc7s6)c5C4)nc3C(=O)O)cc2)CCC1 [Example 26, 2-(8-(benzo[d]thiazol-2-ylcarbamoyl)-3,4-dihydroisoquinolin-2(1H)-yl)-5-(3-(4-(1-cyanocyclobutyl)phenoxy)propyl)thiazole-4-carboxylic acid]
Ki (Bcl-xL (GST-Bcl-xL) [1]): 3 nM
IC50 (Bcl-xL (GST-Bcl-xL) [2]): 5 nM

O=C(Nc1nc2ccccc2s1)c1cccc2c1CN(c1nc(C(=O)O)c(C#CCO)s1)CC2 [Example 14, 2-(8-(Benzo[d]thiazol-2-ylcarbamoyl)-3,4-dihydroisoquinolin-2(1H)-yl)-5-(3-hydroxyprop-1-ynyl)thiazole-4-carboxylic acid]
Ki (Bcl-xL (GST-Bcl-xL) [1]): 6 nM
IC50 (Bcl-xL (GST-Bcl-xL) [2]): 20 nM

CN(C)CCc1ccc(OCCCc2ccc(N3CCc4cccc(C(=O)Nc5nc6ccccc6s5)c4C3)nc2C(=O)O)cc1 [Example 102, 6-(8-(benzo[d]thiazol-2-ylcarbamoyl)-3,4-dihydroisoquinolin-2(1H)-yl)-3-(3-(4-(2-(dimethylamino)ethyl)phenoxy)propyl)picolinic acid]
Ki (Bcl-xL (GST-Bcl-xL) [1]): 2 nM
IC50 (Bcl-xL (GST-Bcl-xL) [2]): 20 nM
